{
  "source": "patent US20080241870A1",
  "about": "“Composition For Creating an Artificial Bone Marrow Like Environment and Use Thereof” (NATIONAL CENTRE FOR CELL SCINECES, priority 2005, published 2008)",
  "format_in_all_cases": "cell-based, human",
  "key": {"[1]": {"system": "αiib:β3 integrin", "test": "engraftment: HCFA of CD34+ SPC attached to ABME formed via αiib:β3 integrin signaling", "details": "FIG. 7", "experimental": "The mesenchyme cells (5×10^4 cells per well in a 24 well dish) were grown in IMDM plus 20% fetal bovine serum until they were nearly confluent. The medium was removed and was washed 2× with PBS. ABME was prepared by using a chemical hematomodulator [Biotin-Ser-Gly-Ser-Gly-Cys*-Asn-Pro-Arg-Gly-Asp (Tyr-OMe)Arg-Cys*Lys (cyclised between C*-C*), 10 microgram ml^−1, 18 hours] that selectively activated αiib:β3 integrin signaling in the mesenchyme cells. The ABME formed was washed 2× with PBS and was covered with 0.2 ml of a suspension of CD34^+ SPC cells (10^5 ml−1) for 1 hour, in the presence or absence of another peptide [1-Adamantaneacetyl-Cys*Gly-Arg-Gly-Asp-Ser-Pro-C(Cyclised between Cys*-Cys*)]which inhibited the interactions of αiib:β3 integrin. At the end of incubation, the cells were washed 2× with PBS and were processed for hematopoietic colony formation assays (HCFA). […] More specifically, the quantities of hematopoietic growth factors used routinely in HCFA were, 2 International Units per milliliter (2 I.U.ml^−1) of Erythropoietin (EPO), 50 nanogram per milliliter (50 ng.ml^−1) of Stem Cell Factor (SCF) and 20 nanogram per milliliter (20 ng/ml^−1) each of Granulocyte-Macrophage-Colony Stimulating Factor (GM-CSF), Granulocyte-Colony Stimulating Factor (G-CSF), Interleukin-1 beta (IL-1β), Interleukin-3 (IL-3) and Interleukin-6 (IL-6). […]"}, "[2]": {"system": "SPC", "test": "priming of SPC before contact with ABME, colony formation", "details": "for colony/blood cell formation after priming SPC: SPC primed with agent", "excerpt": "Experiments were directed to determine if the ABME had properties that promoted cell survival."}, "[3]": {"system": "CD34+ SPC", "test": "lineage commitment: HCFA with CD34+ SPC, count of mature blood cells after 14 days", "experimental": "The mesenchyme cells (5×10^4 cells per well in a 24 well dish) were grown in IMDM plus 20% fetal bovine serum until they were nearly confluent. The medium was removed and was washed 2× with PBS. Two different ABME were prepared by using two biological hematomodulators (TGFβ1 10 ngml^−1, bFGF 10 ngml^−1, 18 hours) separately. The ABME formed was washed 2× with PBS and was covered with 0.2 ml of a suspension of CD34^+ SPC cells (10^5 ml−1) for 1 hour at 37° C. All the cells of the dish were then harvested after washing and were used in a HCFA. After 14 days, the mature blood cells formed were harvested and an aliquot of the suspension was examined under the microscope to identify and count the mature lymphoid and myeloid cells.\nThe mesenchyme cells (5×10^4 cells per well in a 24 well dish) were grown in IMDM plus 20% fetal bovine serum until they were nearly confluent. The medium was removed and was washed 2× with PBS. The cells in one well were treated with a DiBromo derivative of the Calcium ion chelator BAPTA (5 micromolar) for one hour whereas another well received only the medium without the BAPTA derivative. After 1 hour of incubation at 37° C., TGFβ1 was added to both the wells (10 ng ml−1) and the incubation was continued for a further period of 18 hours. The ABME formed in both wells were washed and were used for HCFA using CD34^+ SPC. After 14 days the mature blood cells were harvested and were quantitated for the cells of erythroid and myeloid lineage."}, "[4]": {"system": "mesenchymal cells (ABME) with MNC", "test": "quantitative hematopoietic colony formation assay for ABME (HCFA-ABME): MNC with hematomodulator-contacted mesenchymal cells", "excerpt": "As described above, the medium for blood cell formation employed may be IMDM with 20% serum and supplemented with interleukins such as IL-lbeta, IL-3, and IL-6, stem cell factor, lineage specific growth factors such as erythropoietin and GM-CSF, G-CSF; and methyl cellulose to the extent of 0.8%, the culture is maintained for 12-14 days under the culture conditions whereby blood cell colonies grow well or form colonies and clearly the growth is visible/distinguishable for further analysis and use. An assay designed in a similar manner to assess quantitative nature of ABME function is referred hereafter as ‘quantitative hematopoietic colony formation assay for ABME (HCFA-ABME)’.\nSeveral experiments were conducted to determine that mesenchymal cells exert direct influence on SPC cell-fate. In one set of experiments, mesenchymal cells were cultured separately and nearly 50,000 of them were exposed to a typical HCFA medium comprising 0.8% methyl cellulose in IMDM and 20-30% serum along with excess amounts of various purified and human specific cytokines and hematopoietic colony stimulating growth factors (from Stem cell Technologies, […], Canada). More specifically, the quantities of hematopoietic growth factors used routinely in HCFA were, 2 International Units per milliliter (2 I.U.ml^−1) of Erythropietin (EPO), 50 nanogram per milliliter (50 ng.ml^−1) of Stem Cell Factor (SCF) and 20 nanogram per milliliter (20 ng/ml^−1) each of Granulocyte-Macrophage-Colony Stimulating Factor (GM-CSF), Granulocyte-Colony Stimulating Factor (G-CSF), Interleukin-1 beta (IL-1β), Interleukin-3 (IL-3) and Interleukin-6 (IL-6) {all growth factors and cytokines are from Stem cell Technologies, Vancouver, Canada,}.\nIn another set of experiments, 50,000 of the same mesenchymal cells were first mixed with nearly 100,000 MNC, held at 37° C. for at least 30 minutes and were processed for colony formation assays. In several experiments, a consistent improvement in the number and cellularity of the hematopoietic colonies was seen when both these two cell types were mixed compared to a reference where only the cells of MNC were used. The increase was ranging from 1.5 to 10-fold. Thus, the enhancement in colony formation obtained with the use of only mesenchymal cells was highly variable and unpredictable among samples. The fact that hematopoietic colonies formed in increased numbers and cellularity only when MNC and mesenchymal cells were processed together is evidence of a new environment created by the mesenchymal cells in which the SPC present in the MNC were more productive. This increase results in activation of the pre-existing but quiescent SPC, formation of new SPC due to self-renewal, and a combination of both factors.\nIn order to create ABME, the mesenchymal cells were covered with the contacting medium comprising hematomodulators contained in IMDM with 20% human serum or fetal bovine serum for a desirable period (range 8-24 hours) and removed. The contacted cells were then washed 2 times using the contacting medium (IMDM +20% FCS) without hematomodulators and used as such or after harvesting the mesenchymal cells, which now represent the composition of in vitro ABME. Optionally, ABME cells can be configured on supports that will distribute them in two or more dimensions for better results. A requisite number of MNC/SPC and cells of the ABME are taken and kept together for a suitable duration (range 0.5 to 6 hours) after which they were processed for in vitro hematopoietic colony formation assays or hematopoiesis.\nThus, the inventors undertook 4 sets of experiments: (a) wherein mononuclear cells were exposed to mesenchymal cells without any treatment; (b) wherein MNC were exposed to mesenchymal cells contacted with a biological agent [TGFβ1] […]"}},
  "data": [
    {"molecule": "1-Adamantaneacetyl-Cys*Gly-Arg-Gly-Asp-Ser-Pro-C(Cyclised between Cys*-Cys*) (GRGDSP; N-terminal 1-adamantaneacetyl-Cys, C-terminal Cys; cyclised Cys-Cys; printed: Gly-Arg-Gly-Asp-Ser-Pro-)", "values": [
      {"measurement": "hematopoietic colony numbers in presence of inhibitory peptide", "setting": "[1]; inhibitor present during SPC contact with ABME formed by activating peptide", "result": "colony numbers decreased in an inhibitor dose dependent manner"}
    ]},
    {"molecule": "NC(=O)c1cccc(N)c1", "note": "[3 Amino Benzamide, reference compound]", "values": [
      {"measurement": "colony/blood cell formation after priming SPC", "setting": "[2]", "result": "improved colony/blood cell formation"},
      {"measurement": "number of hematopoietic colonies formed from treated SPC", "setting": "[2]; SPC treated to inhibit Poly(ADP-ribose) Polymerase, FIG. 9", "result": "synergistically increasing the number of hematopoietic colonies formed"}
    ]},
    {"molecule": "O=C(O)CN(CC(=O)O)c1ccc(Br)cc1OCCOc1cc(Br)ccc1N(CC(=O)O)CC(=O)O", "note": "[DiBromo BAPTA, DiBromo derivative of Ca^++ chelator BAPTA, reference compound]", "values": [
      {"measurement": "proportion of myeloid and erythroid cells", "setting": "[3]; 5 micromolar for one hour, then TGFβ1 10 ng ml-1 18 hours, vs TGFβ1 alone, FIG. 8b", "result": "significant difference in the proportion of myeloid and erythroid cell population"}
    ]},
    {"molecule": "CC(C)[C@H]1C(=O)N[C@H](CO)Cc2c[nH]c3cccc(c23)N1C", "note": "[chemical agent 1, (—) Indolactam V, reference compound]", "values": [
      {"measurement": "colonies of cells relative to (A)", "setting": "[4]; MNC exposed to mesenchymal cells contacted with chemical agent, (A) = untreated mesenchymal cells", "result": "at least 4 times"}
    ]},
    {"molecule": "Biotin-Ser-Gly-Ser-Gly-Cys*-Asn-Pro-Arg-Gly-Asp (Tyr-OMe)Arg-Cys*Lys (cyclised between C*-C*)", "values": [
      {"measurement": "hematopoietic colonies formed by ABME (activating peptide)", "setting": "[1]; 10 microgram ml^-1, 18 hours, CD34+ SPC 1 hour, HCFA 12-14 days", "result": "significantly more number of hematopoietic colonies"}
    ]},
    {"molecule": "HuFGF-2", "values": [
      {"measurement": "efficiency of ABME created", "setting": "[4]; 1-25 nano gram.ml^-1, mesenchymal cells contacted 8-24 hours", "result": "equally efficient ABME"},
      {"measurement": "colony formation along lineages GEMM, BFU-E and GM", "setting": "[4]; lineage specific colony formation assay, FIG. 3A, vs control without biological agent", "result": "uniformly stimulated"},
      {"measurement": "potency in creating ABME from mesenchymal cells", "setting": "[4]; used separately", "result": "nearly equipotent"},
      {"measurement": "mature lymphoid and myeloid cells formed", "setting": "[3]; 10 ngml^-1, 18 hours, HCFA 14 days, FIG. 8a", "result": "more of lymphoid cells were produced"}
    ]},
    {"molecule": "IGF-1: priming agent activating IGF-I receptor signals", "values": [
      {"measurement": "colony/blood cell formation after priming SPC", "setting": "[2]", "result": "improved colony/blood cell formation"}
    ]},
    {"molecule": "IGF-II: priming agent, Mannose6-phosphate/IGF-II receptor", "values": [
      {"measurement": "colony/blood cell formation after priming SPC", "setting": "[2]", "result": "improved colony/blood cell formation"}
    ]},
    {"molecule": "Latency Associated peptide of human TGF beta1.", "values": [
      {"measurement": "colony/blood cell formation after priming SPC", "setting": "[2]", "result": "improved colony/blood cell formation"}
    ]}
  ]
}
